Measurements: patent publication US20050159444A1, “Bicyclic unsaturated tertiary amine compounds” (SANKYO COMPANY, LIMITED, priority 2002, published 2005)
pIC50: −log10 of the molar value.

Legend:
[1] = system: adjuvant-induced arthritis; experiment: Activity in preventing the development of adjuvant-induced arthritis in vivo; conditions: dose: 10 mg/kg, oral once a day from day 0 to day 20; measured on day 21; Lewis rat
Protocol: Activity in Preventing the Development of Adjuvant-Induced Arthritis In Vivo The test was performed according to the method described by Winder et al. (Arthritis Rheum., 12, 472-482, 1969). Heat-killed dried Mycobacterium butyricum (Difco Laboratories, Lot 679123) was ground on an agate mortar, and was then suspended in dry-sterilised liquid paraffin (first grade, Wako Pure Chemical Industries, Ltd.) to make a 2 mg/ml suspension. The resulting suspension was then sonicated and used as an adjuvant. Arthritis was induced by the intradermal injection of the adjuvant (100 μg of heat killed dried bacterium/0.05 ml of paraffin/paw) into the heel of the right hind paw of a Lewis rat (male, age 9 weeks, 190 g, Japan Charles River). The rats were assigned to groups of 5 animals each. […] The volumes of the right hind paw (adjuvant-injected paw) and left hind paw (non-injected paw) were measured on days 3, 5, 7, 10, 13, 15, 18 and 21 using a Plethysmometer™ (Ugo Basile), the hind paws being soaked from the toe to the hairline in the bath of the Plethysmometer™. The volumes of the swollen feet (adjuvant-injected right hind foot volume—non-injected left hind foot volume) were calculated. The percent inhibition of swelling of the injected foot of the treated animals as compared to that of the control animals on day 21 was calculated as follows. [formula]

TNFα production [2] = experiment: Inhibition of the production of TNFα in vitro in human whole blood; type: cell-based; conditions: lipopolysaccharide 10 μg/ml, 6 hours at 37° C., ELISA of plasma, read-out: Inhibitory Effect on TNFα Production (in vitro) IC50
Protocol: Inhibition of the Production of the Cytokines IL-1β and TNFα In Vitro in Human Whole Blood
This test was performed according to the method of Hartman, et al. [D. A. Hartman, S. J. Ochalski and R. P. Carlson; The effects of anti-inflammatory and antiallergic drugs on cytokine release after stimulation of human whole blood by lipopolysaccharide and zymosan A: Inflamm. Res., 44, 269 (1995)].
Peripheral blood samples were collected in the presence of heparin from healthy adult volunteers. 1000 μl of whole blood was added to an Eppendorf tube to which 2 μl of a dimethyl sulfoxide solution of the test compound had been previously added, after which 10 μl of lipopolysaccharide (E. coli O26: B6 origin, Difco) was added as a stimulant (final concentration of said lipopolysaccharide: 10 μg/ml). This was thoroughly mixed and then incubated for 6 hours at 37° C. in the presence of 5% CO2. At the end of the incubation, the mixture was cooled to 4° C. to stop the reaction, followed immediately by centrifuging for 5 minutes at 14,000 rpm to separate and collect the supernatant plasma. The IL-1β and TNFα produced and released into the plasma were measured using a commercially available enzyme immunoassay (ELISA) kits [Cayman and Genzyme]. The inhibitory effect [IC50 (μM)] on the production of cytokines was determined by the method of least squares from the amounts of the cytokines produced in the presence and absence of the test compound.

TNFα production [3] = experiment: Inhibition of the production of TNFα in vivo (lipopolysaccharide-injected mice); conditions: Mus musculus, oral, 30 minutes before lipopolysaccharide injection, plasma TNFα 1 hour after LPS, Balb/c mice, average vs control group, read-out: Inhibition Rate (%) of TNFα Production (in vivo)
Protocol: Inhibition of the Production of TNFα In Vivo
This test was performed according to the method of Ochalaki et al. [S. J. Ochalaki, D. A. Hartman, M. T. Belfast, T. L. Walter, K. B. Glaser and R. P. Carlson; Inhibition of endotoxin-induced hypothermia and serum TNFα levels in CD-1 mice by various pharmacological agents: Agents Actions 39, C52-C54 (1998)].
The production of TNFα was induced in mice by intravenous injection of lipopolysaccharide (E. coli O26: B6 origin, Difco) which was prepared to a concentration of 0.045 mg/ml using physiological saline. The saline preparation of lipopolysaccharide was administered at the rate of 10 ml/1 kg of body weight into the caudal vein of Balb/c mice (males, age 5-7 weeks, body weight: approx. 22 g, Japan Charles River) which had been fasted overnight starting the day before the experiment. One hour after administration, the mice were laparotomized under ether anaesthesia and blood was collected from the abdominal vena cava. Blood collection was performed using a 1 ml volume disposable syringe equipped with a 23G needle which had been moistened with heparin on the inside wall. Following blood collection, the blood was immediately transferred to a 1.5 ml volume Eppendorf tube and centrifuged at 4° C. and 14,000 rpm to separate the plasma. This plasma was then stored at −20° C. until measurement of TNFα.
The measurement of the amount of TNFα was performed with a enzyme immunoassay (ELISA) kit (Mouse TNFα ELISA KIT, Genzyme).
To determine the inhibitory activity of the test compounds, each test compound was suspended in 0.5% tragacanth solution ad then administered orally to the mice at a rate of 10 ml/1 kg of body weight 30 minutes before injection of the lipopolysaccharide, and the average inhibition rates were calculated versus a control group.

Row | SMILES | Inhibition rate (%) of swelling of adjuvant-injected foot [1] | pIC50 (TNFα production [2]) | inhibition in vivo at 5 mg/kg (TNFα production [3])
1 | Fc1ccc(-c2[nH]cc(C3=C[C@@H]4C[C@@H](c5ccccc5)CN4CC3)c2-c2ccncc2)cc1 [Example 2, 2-(4-Fluorophenyl)-4-[(2S,8aS)-2-phenyl-1,2,3,5,6,8a-hexahydroindolizin-7-yl]-3-(pyridin-4-yl)-1H-pyrrole] | 84% | – | –
2 | Fc1ccc(-c2[nH]cc(C3=C[C@@H]4C[C@H](c5ccc(F)cc5)CN4CC3)c2-c2ccncc2)cc1 [Example 3, 2-(4-Fluorophenyl)-4-[(2R,8aS)-2-(4-fluorophenyl)-1,2,3,5,6,8a-hexahydroindolizin-7-yl]-3-(pyridin-4-yl)-1H-pyrrole] | – | 8.29 | –
3 | Cc1ccc([C@H]2C[C@H]3C=C(c4c[nH]c(-c5ccc(F)cc5)c4-c4ccncc4)CCN3C2)cc1 [Example 4, 2-(4-Fluorophenyl)-4-[(2R,8aS)-2-(4-methylphenyl)-1,2,3,5,6,8a-hexahydroindolizin-7-yl]-3-(pyridin-4-yl)-1H-pyrrole] | – | 8.11 | –
4 | CCC[C@H]1C[C@H]2C=C(c3n[nH]c(-c4ccc(F)cc4)c3-c3ccncc3)CCN2C1 [Example 6, 5-(4-Fluorophenyl)-3-[(2S,8aS)-2-propyl-1,2,3,5,6,8a-hexahydroindolizin-7-yl]-4-(pyridin-4-yl)-pyrazole] | – | 8.20 | –
5 | Fc1ccc(-c2[nH]nc(C3=C[C@@H]4C[C@@H](c5ccccc5)CN4CC3)c2-c2ccncc2)cc1 [Example 7, 5-(4-Fluorophenyl)-3-[(2S,8aS)-2-phenyl-1,2,3,5,6,8a-hexahydroindolizin-7-yl]-4-(pyridin-4-yl)pyrazole] | 81% | – | –
6 | Fc1ccc(-c2[nH]cc(C3=C[C@@H]4C[C@@H](c5ccccc5)CN4CC3)c2-c2ccncc2)cc1F [Example 8, 2-(3,4-Difluorophenyl)-4-[(2S,8aS)-2-phenyl-1,2,3,5,6,8a-hexahydroindolizin-7-yl]-3-(pyridin-4-yl)-1H-pyrrole] | – | – | 91%
7 | Clc1cccc(-c2[nH]cc(C3=C[C@@H]4C[C@@H](c5ccccc5)CN4CC3)c2-c2ccncc2)c1 [Example 10, 2-(3-Chlorophenyl)-4-[(2S,8aS)-2-phenyl-1,2,3,5,6,8a-hexahydroindolizin-7-yl]-3-(pyridin-4-yl)-1H-pyrrole] | – | 8.14 | 91%
8 | Cc1ccc([C@@H]2C[C@H]3C=C(c4c[nH]c(-c5ccc(F)c(F)c5)c4-c4ccncc4)CCN3C2)cc1 [Example 12, 2-(3,4-Difluorophenyl)-4-[(2S,8aS)-2-(4-methylphenyl)-1,2,3,5,6,8a-hexahydroindolizin-7-yl]-3-(pyridin-4-yl)-1H-pyrrole] | – | 8.26 | –
9 | COc1ccc([C@@H]2C[C@H]3C=C(c4c[nH]c(-c5ccc(F)cc5)c4-c4ccncc4)CCN3C2)cc1 [Example 16, 2-(4-Fluorophenyl)-4-[(2S,8aS)-2-(4-methoxyphenyl)-1,2,3,5,6,8a-hexahydroindolizin-7-yl]-3-(pyridin-4-yl)-1H-pyrrole] | – | 8.27 | 90%
10 | COc1ccc([C@@H]2C[C@H]3C=C(c4c[nH]c(-c5cccc(Cl)c5)c4-c4ccncc4)CCN3C2)cc1 [Example 23, 2-(3-Chlorophenyl)-4-[(2S,8aS)-2-(4-methoxyphenyl)-1,2,3,5,6,8a-hexahydroindolizin-7-yl]-3-(pyridin-4-yl)-1H-pyrrole] | – | – | 90%
11 | C1=C(c2c[nH]c(-c3ccccc3)c2-c2ccncc2)CCN2C[C@H](c3ccccc3)C[C@@H]12 [Example 25, 2-Phenyl-4-[(2S,8aS)-2-phenyl-1,2,3,5,6,8a-hexahydroindolizin-7-yl]-3-(pyridin-4-yl)-1H-pyrrole] | – | – | 92%
12 | CCOc1ccc([C@@H]2C[C@H]3C=C(c4c[nH]c(-c5ccc(F)cc5)c4-c4ccncc4)CCN3C2)cc1 [Example 30, 4-[(2S,8aS)-2-(4-Ethoxyphenyl)-1,2,3,5,6,8a-hexahydroindolizin-7-yl]-2-(4-fluorophenyl)-3-(pyridin-4-yl)-1H-pyrrole] | – | – | 90%
13 | COc1cccc([C@@H]2C[C@H]3C=C(c4c[nH]c(-c5ccc(F)c(F)c5)c4-c4ccncc4)CCN3C2)c1 [Example 31, 2-(3,4-Difluorophenyl)-4-[(2S,8aS)-2-(3-methoxyphenyl)-1,2,3,5,6,8a-hexahydroindolizin-7-yl]-3-(pyridin-4-yl)-1H-pyrrole] | – | – | 92%
14 | Cc1ccc([C@@H]2C[C@H]3C=C(c4c[nH]c(-c5ccc(F)c(F)c5)c4-c4ccncc4)CCN3C2)cc1C [Example 41, 2-(3,4-Difluorophenyl)-4-[(2S,8aS)-2-(3,4-dimethylphenyl)-1,2,3,5,6,8a-hexahydroindolizin-7-yl]-3-(pyridin-4-yl)-1H-pyrrole] | – | – | 91%
15 | Fc1ccc(-c2[nH]cc(C3=C[C@@H]4C[C@@H](c5ccccc5)CN4CC3)c2-c2ccncc2)cc1Cl [Example 46, 2-(3-Chloro-4-fluorophenyl)-4-[(2S,8aS)-2-phenyl-1,2,3,5,6,8a-hexahydroindolizin-7-yl]-3-(pyridin-4-yl)-1H-pyrrole] | – | 8.68 | 93%
